Test results taken from PubChem BioAssay AID1963966 (Molecular Pharmacology Branch, DTP, NCI, 2024).

Tested on: 935938-334-R-J1-PDC spheroids with HUVEC/MSC, viability
Experiment: Anticancer human tumor 935938-334-R-J1-PDC patient-derived small intestine adenocarcinoma cell line growth inhibition [PI3K]
Settings: for IC50: curve of first compound; for viability, T/C: stronger effect = lower value
Outline: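 Three cell types, namely tumor cells, endothelial cells and mesenchymal stem cells, formed each spheroid. Combinations with four PI3K inhibitors were screened at clinically achievable concentrations decreasing by half-log, and spheroid viability was recorded.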

[1] = second compound 0.0316 µM, first compound 0.0316 µM
[2] = second compound 0.0316 µM, first compound 0.1 µM
[3] = second compound 0.0316 µM, first compound 0.316 µM
[4] = second compound 0.0316 µM, first compound 1 µM
[5] = second compound 0.0316 µM, first compound 3.16 µM
[6] = second compound 0.0316 µM, first compound 10 µM
[7] = second compound 0.1 µM, first compound 0.0316 µM
[8] = second compound 0.1 µM, first compound 0.1 µM
[9] = second compound 0.1 µM, first compound 0.316 µM
[10] = second compound 0.1 µM, first compound 1 µM
[11] = second compound 0.1 µM, first compound 3.16 µM
[12] = second compound 0.1 µM, first compound 10 µM
[13] = second compound 0.316 µM, first compound 0.0316 µM
[14] = second compound 0.316 µM, first compound 0.1 µM
[15] = second compound 0.316 µM, first compound 0.316 µM
[16] = second compound 0.316 µM, first compound 1 µM
[17] = second compound 0.316 µM, first compound 3.16 µM
[18] = second compound 0.316 µM, first compound 10 µM
[19] = second compound 1 µM, first compound 0.0316 µM
[20] = second compound 1 µM, first compound 0.1 µM
[21] = second compound 1 µM, first compound 0.316 µM
[22] = second compound 1 µM, first compound 1 µM
[23] = second compound 1 µM, first compound 3.16 µM
[24] = second compound 1 µM, first compound 10 µM
[25] = second compound 3.16 µM, first compound 0.0316 µM
[26] = second compound 3.16 µM, first compound 0.1 µM
[27] = second compound 3.16 µM, first compound 0.316 µM
[28] = second compound 3.16 µM, first compound 1 µM
[29] = second compound 3.16 µM, first compound 3.16 µM
[30] = second compound 3.16 µM, first compound 10 µM
[31] = second compound 10 µM, first compound 0.0316 µM
[32] = second compound 10 µM, first compound 0.1 µM
[33] = second compound 10 µM, first compound 0.316 µM
[34] = second compound 10 µM, first compound 1 µM
[35] = second compound 10 µM, first compound 3.16 µM
[36] = second compound 10 µM, first compound 10 µM
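Note: compound exposure lasted seven days before viability was read.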
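Throughout, for viability, T/C: percent of vehicle DMSO treated spheroid viability so 100% = untreated.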

CC1(C)CCC(CN2CCN(c3ccc(C(=O)NS(=O)(=O)c4ccc(NCC5CCOCC5)c([N+](=O)[O-])c4)c(Oc4cnc5[nH]ccc5c4)c3)CC2)=C(c2ccc(Cl)cc2)C1 + Cc1nc(NC(=O)N2CCCC2C(N)=O)sc1-c1ccnc(C(C)(C)C(F)(F)F)c1
IC50 (second compound 0.0316 µM): 6.77 µM | IC50 (second compound 0.1 µM): 7.42 µM | IC50 (second compound 0.316 µM): 6.51 µM | IC50 (second compound 1 µM): 5.32 µM | IC50 (second compound 3.16 µM): 4.25 µM | IC50 (second compound 10 µM): < 0.0316 µM | viability, T/C [1]: 85.1% | viability, T/C [2]: 97.9% | viability, T/C [3]: 91.5% | viability, T/C [4]: 80.6% | viability, T/C [5]: 87.7% | viability, T/C [6]: 30.7% | viability, T/C [7]: 81.9% | viability, T/C [8]: 97.5% | viability, T/C [9]: 89.3% | viability, T/C [10]: 99.4% | viability, T/C [11]: 101% | viability, T/C [12]: 34.6% | viability, T/C [13]: 96.3% | viability, T/C [14]: 99% | viability, T/C [15]: 76.5% | viability, T/C [16]: 55.2% | viability, T/C [17]: 92.4% | viability, T/C [18]: 29.8% | viability, T/C [19]: 82% | viability, T/C [20]: 75.5% | viability, T/C [21]: 72.4% | viability, T/C [22]: 57.4% | viability, T/C [23]: 70.8% | viability, T/C [24]: 25.4% | viability, T/C [25]: 52.3% | viability, T/C [26]: 67% | viability, T/C [27]: 53.5% | viability, T/C [28]: 58.6% | viability, T/C [29]: 60% | viability, T/C [30]: 26.2% | viability, T/C [31]: 38.1% | viability, T/C [32]: 42.1% | viability, T/C [33]: 36.6% | viability, T/C [34]: 44.4% | viability, T/C [35]: 48% | viability, T/C [36]: 31.4%

CCCS(=O)(=O)Nc1ccc(F)c(C(=O)c2c[nH]c3ncc(-c4ccc(Cl)cc4)cc23)c1F + Cc1nc(NC(=O)N2CCCC2C(N)=O)sc1-c1ccnc(C(C)(C)C(F)(F)F)c1
IC50 (second compound 0.0316 µM): 6.36 µM | IC50 (second compound 0.1 µM): 6.49 µM | IC50 (second compound 0.316 µM): 5.57 µM | IC50 (second compound 1 µM): 5.52 µM | IC50 (second compound 3.16 µM): 4.6 µM | IC50 (second compound 10 µM): 0.0316 µM | viability, T/C [1]: 85.6% | viability, T/C [2]: 113% | viability, T/C [3]: 98.5% | viability, T/C [4]: 97.6% | viability, T/C [5]: 94.1% | viability, T/C [6]: 21.5% | viability, T/C [7]: 90.2% | viability, T/C [8]: 75.4% | viability, T/C [9]: 105% | viability, T/C [10]: 112% | viability, T/C [11]: 98.2% | viability, T/C [12]: 22.3% | viability, T/C [13]: 82% | viability, T/C [14]: 110% | viability, T/C [15]: 88.9% | viability, T/C [16]: 95.5% | viability, T/C [17]: 81.2% | viability, T/C [18]: 17.6% | viability, T/C [19]: 75.3% | viability, T/C [20]: 85% | viability, T/C [21]: 88% | viability, T/C [22]: 74.1% | viability, T/C [23]: 77.1% | viability, T/C [24]: 21.2% | viability, T/C [25]: 63.1% | viability, T/C [26]: 52.7% | viability, T/C [27]: 69% | viability, T/C [28]: 65.5% | viability, T/C [29]: 67.5% | viability, T/C [30]: 22.1% | viability, T/C [31]: 36.9% | viability, T/C [32]: 47.2% | viability, T/C [33]: 54.2% | viability, T/C [34]: 51.7% | viability, T/C [35]: 54.4% | viability, T/C [36]: 18.2%

CNC(=O)c1ccc(N2C(=S)N(c3ccc(C#N)c(C(F)(F)F)c3)C(=O)C2(C)C)cc1F + Cc1nc(NC(=O)N2CCCC2C(N)=O)sc1-c1ccnc(C(C)(C)C(F)(F)F)c1
IC50 (second compound 0.0316 µM): > 10 µM | IC50 (second compound 0.1 µM): > 10 µM | IC50 (second compound 0.316 µM): > 10 µM | IC50 (second compound 1 µM): > 10 µM | IC50 (second compound 3.16 µM): < 0.0316 µM | IC50 (second compound 10 µM): 0.162 µM | viability, T/C [1]: 111% | viability, T/C [2]: 84.3% | viability, T/C [3]: 84.9% | viability, T/C [4]: 91.9% | viability, T/C [5]: 100% | viability, T/C [6]: 88% | viability, T/C [7]: 81.7% | viability, T/C [8]: 88.7% | viability, T/C [9]: 65.5% | viability, T/C [10]: 84.4% | viability, T/C [11]: 76.8% | viability, T/C [12]: 62.9% | viability, T/C [13]: 103% | viability, T/C [14]: 59.7% | viability, T/C [15]: 81.9% | viability, T/C [16]: 69.6% | viability, T/C [17]: 77% | viability, T/C [18]: 56.7% | viability, T/C [19]: 75.2% | viability, T/C [20]: 76.8% | viability, T/C [21]: 70.2% | viability, T/C [22]: 101% | viability, T/C [23]: 56.2% | viability, T/C [24]: 70.7% | viability, T/C [25]: 39.6% | viability, T/C [26]: 43.9% | viability, T/C [27]: 51% | viability, T/C [28]: 51.5% | viability, T/C [29]: 47% | viability, T/C [30]: 47.3% | viability, T/C [31]: 45.6% | viability, T/C [32]: 59.7% | viability, T/C [33]: 46.2% | viability, T/C [34]: 39.3% | viability, T/C [35]: 38.5% | viability, T/C [36]: 34.3%
